In patent publication US8609836B2, “4-aryl-2-anilino-pyrimidines” (Janssen Pharmaceutica NV, priority 2008, dated 2013):

How the values were obtained:
GSK3β (h) = GSK3β (h) (Homo sapiens, UniProt P49841); experiment: GSK-3β human kinase inhibition, SPA; assay type: biochemical; details: read-out: GSK3b pIC50 (converted)
Outline: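 Radiometric: 33P-labelled peptide captured on streptavidin SPA beads after EDTA stop and imaged on Leadseeker. Reaction ran 1 h at RT, 1 μM cold ATP with 2 nM [γ-33P]ATP, 1 μM biotin-peptide substrate, human GSK3β 1 μg/ml, pH 7.4 Tris buffer.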

CDK4/CyclinD1 (h) = CDK4/CyclinD1 (h) (Homo sapiens, UniProt P11802); experiment: CDK4/CyclinD1 human kinase inhibition, SPA with GST-pRb substrate; assay type: biochemical; details: read-out: CDK4 pIC50 (converted)
CDK4/CyclinD1 (h), sequence (P11802 whole entry): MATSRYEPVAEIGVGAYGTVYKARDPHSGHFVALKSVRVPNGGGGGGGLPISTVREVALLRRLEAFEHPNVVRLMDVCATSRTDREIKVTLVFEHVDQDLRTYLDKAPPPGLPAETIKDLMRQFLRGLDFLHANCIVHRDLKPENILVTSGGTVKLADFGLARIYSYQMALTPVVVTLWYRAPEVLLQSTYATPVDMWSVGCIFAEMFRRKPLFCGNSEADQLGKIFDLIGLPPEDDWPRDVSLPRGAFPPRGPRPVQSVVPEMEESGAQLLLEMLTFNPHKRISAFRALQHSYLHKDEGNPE
CDK4/CyclinD1 (h), sequence (P24385 whole entry partner): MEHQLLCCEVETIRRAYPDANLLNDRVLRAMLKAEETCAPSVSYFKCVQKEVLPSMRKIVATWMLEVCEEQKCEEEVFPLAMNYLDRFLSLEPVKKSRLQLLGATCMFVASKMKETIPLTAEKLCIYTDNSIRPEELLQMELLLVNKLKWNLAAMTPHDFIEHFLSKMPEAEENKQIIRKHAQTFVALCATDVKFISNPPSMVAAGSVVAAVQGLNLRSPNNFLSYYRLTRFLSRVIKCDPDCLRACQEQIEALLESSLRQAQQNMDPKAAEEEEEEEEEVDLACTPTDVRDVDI
Outline: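 Scintillation proximity format: after EDTA/Triton stop containing glutathione SPA beads, 33P incorporation was counted. The reaction ran 60 min at room temperature in Hepes pH 7.5 with NaF, MgCl2, DTT, using 2.5 μg/ml human CDK4/CyclinD1, 40 μg/ml GST-pRb substrate and 2 nM [γ-33P]ATP.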

PLK1 T210D (h) = PLK1 T210D (h) (Homo sapiens, UniProt P53350, T210D); experiment: PLK1 human kinase inhibition, SPA; assay type: biochemical; details: read-out: PLK1 pIC50 (converted)
PLK1 T210D (h), sequence (P53350 whole entry T210D): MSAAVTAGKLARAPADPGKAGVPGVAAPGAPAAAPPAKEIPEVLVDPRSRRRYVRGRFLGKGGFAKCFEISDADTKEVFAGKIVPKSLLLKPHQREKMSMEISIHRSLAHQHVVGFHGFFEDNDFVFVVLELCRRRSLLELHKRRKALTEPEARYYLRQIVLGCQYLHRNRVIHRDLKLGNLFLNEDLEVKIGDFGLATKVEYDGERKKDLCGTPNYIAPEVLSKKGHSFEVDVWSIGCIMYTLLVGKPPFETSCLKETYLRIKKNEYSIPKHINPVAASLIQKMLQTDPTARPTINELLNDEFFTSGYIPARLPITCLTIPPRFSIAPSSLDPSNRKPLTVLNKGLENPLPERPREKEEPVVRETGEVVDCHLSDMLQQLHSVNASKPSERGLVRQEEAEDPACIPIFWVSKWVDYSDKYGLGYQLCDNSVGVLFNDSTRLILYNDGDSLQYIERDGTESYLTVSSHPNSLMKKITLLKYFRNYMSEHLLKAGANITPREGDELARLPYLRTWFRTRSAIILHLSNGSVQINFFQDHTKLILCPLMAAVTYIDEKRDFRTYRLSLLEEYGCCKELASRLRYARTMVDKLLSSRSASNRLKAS
Outline: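 Kinase incubated 40 min at room temperature with 0.1 μM ATP (2 nM [γ-33P]ATP tracer), 2 μM biotinylated peptide, pH 8.0 Hepes buffer with 2 mM MnCl2 and 1 mM DTT; enzyme at 0.125 ng/ml. Stopped with EDTA; 33P-peptide bound to streptavidin scintillant beads and imaged.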

PLK2 (h) = PLK2 (h) (Homo sapiens, UniProt Q9NYY3); experiment: PLK2 human kinase inhibition, SPA; assay type: biochemical; details: read-out: PLK2 pIC50 (converted)
PLK2 (h), sequence (Q9NYY3 whole entry): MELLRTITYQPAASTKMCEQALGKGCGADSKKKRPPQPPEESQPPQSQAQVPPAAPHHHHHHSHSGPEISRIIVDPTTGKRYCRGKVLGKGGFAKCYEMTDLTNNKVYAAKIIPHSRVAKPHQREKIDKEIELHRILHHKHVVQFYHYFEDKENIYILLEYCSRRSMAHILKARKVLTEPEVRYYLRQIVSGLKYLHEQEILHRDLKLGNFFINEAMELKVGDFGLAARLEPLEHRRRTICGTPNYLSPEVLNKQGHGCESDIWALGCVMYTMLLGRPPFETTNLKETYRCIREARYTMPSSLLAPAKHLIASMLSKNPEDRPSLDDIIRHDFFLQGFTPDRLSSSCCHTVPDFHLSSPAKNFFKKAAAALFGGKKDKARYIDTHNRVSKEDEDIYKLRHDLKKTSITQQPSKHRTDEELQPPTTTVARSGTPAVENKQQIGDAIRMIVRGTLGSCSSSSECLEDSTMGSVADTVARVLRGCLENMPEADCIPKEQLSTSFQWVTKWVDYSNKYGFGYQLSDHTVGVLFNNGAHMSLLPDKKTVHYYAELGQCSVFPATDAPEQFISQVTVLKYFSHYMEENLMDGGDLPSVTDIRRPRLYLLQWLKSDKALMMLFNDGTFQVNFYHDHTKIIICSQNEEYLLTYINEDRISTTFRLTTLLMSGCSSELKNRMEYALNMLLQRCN
Outline: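 33P incorporation into a biotinylated peptide (2 μM) was captured on streptavidin PVT beads and imaged on Leadseeker. Enzyme at 30 μg/ml, ATP 0.1 μM with 2 nM [γ-33P]ATP, Hepes pH 8.0 with MnCl2 and DTT. Incubation was 20 min at room temperature.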

PLK3 (h) = PLK3 (h) (Homo sapiens, UniProt Q9H4B4); experiment: PLK3 human kinase inhibition, SPA; assay type: biochemical; details: read-out: PLK3 pIC50 (converted)
PLK3 (h), sequence (Q9H4B4 whole entry): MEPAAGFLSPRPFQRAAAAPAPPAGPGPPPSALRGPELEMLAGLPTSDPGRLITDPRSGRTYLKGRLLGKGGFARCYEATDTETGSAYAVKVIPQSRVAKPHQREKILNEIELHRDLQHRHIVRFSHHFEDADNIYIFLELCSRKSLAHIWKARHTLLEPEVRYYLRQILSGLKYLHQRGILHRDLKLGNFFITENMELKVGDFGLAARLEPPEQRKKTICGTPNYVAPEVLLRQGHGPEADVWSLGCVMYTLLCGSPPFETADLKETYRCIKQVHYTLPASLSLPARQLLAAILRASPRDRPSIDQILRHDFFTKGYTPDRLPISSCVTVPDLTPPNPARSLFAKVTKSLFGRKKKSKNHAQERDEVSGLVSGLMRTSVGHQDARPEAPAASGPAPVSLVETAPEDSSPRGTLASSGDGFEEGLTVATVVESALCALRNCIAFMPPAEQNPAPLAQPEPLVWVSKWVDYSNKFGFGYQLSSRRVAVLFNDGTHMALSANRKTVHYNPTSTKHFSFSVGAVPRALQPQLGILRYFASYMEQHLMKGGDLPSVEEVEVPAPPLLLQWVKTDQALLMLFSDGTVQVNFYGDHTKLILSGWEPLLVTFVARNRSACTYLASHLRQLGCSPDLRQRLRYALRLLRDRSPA
Outline: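 Radiometric scintillation proximity format at pH 8.0 (Hepes, MnCl2, DTT). The 2 μM biotin-peptide substrate is phosphorylated by PLK3 (h) (30 μg/ml) using 0.1 μM ATP traced with 33P, for 20 min at room temperature. EDTA stop; phosphopeptide captured on streptavidin beads and imaged.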

HCT-116 = experiment: Cellular proliferation assay (Alamar blue), HCT-116; assay type: cell-based; details: Homo sapiens, 10% FCS, 72 hours with compound, Alamar blue 4 h
Outline: (§1)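 Growth inhibition measured after 72 h incubation with compound, following 24 h pre-culture at 37° C, 5% CO2 with 10% FCS. Resazurin-based read-out at 544/590 nm after 4 h (HCT-116), 6 h (U87-MG) or 24 h (A2780, MDA-MB-231); results relative to control.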

H1299 = experiment: Cellular proliferation assay (Alamar blue), H1299; assay type: cell-based; details: Homo sapiens, NCI-H1299; 10% FCS; 72 hours with compound; Alamar blue 4 h
Outline: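 This proliferation assay on NCI-H1299 cells used an initial 24-hour compound-free incubation after seeding, followed by 72 hours of compound treatment with 10% FCS serum at 37° C. and 5% (v/v) CO2. Viable cells were quantified by a 4 h Alamar blue incubation and fluorescent plate reading at 544 nm/590 nm, and effects were expressed relative to control cells.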

U87-MG = experiment: Cellular proliferation assay (Alamar blue), U87-MG; assay type: cell-based; details: Homo sapiens, U-87 MG; 10% FCS; 72 hours with compound; Alamar blue 6 h; read-out: U87-MG (cellular proliferation assay, Table 4) (converted)
Outline: as §1

A2780 = experiment: Cellular proliferation assay (Alamar blue), A2780; assay type: cell-based; details: Homo sapiens, 10% FCS, 72 hours with compound, Alamar blue 24 h, read-out: A2780 (cellular proliferation assay, Table 4) (converted)
Outline: as §1

MDA-MB-231 = experiment: Cellular proliferation assay (Alamar blue), MDA-MB-231; assay type: cell-based; details: Homo sapiens, 10% FCS, 72 hours with compound, Alamar blue 24 h, read-out: MDA/MB231 (cellular proliferation assay, Table 4) (converted)
Outline: as §1

GSK3β (h), sequence (P49841 whole entry): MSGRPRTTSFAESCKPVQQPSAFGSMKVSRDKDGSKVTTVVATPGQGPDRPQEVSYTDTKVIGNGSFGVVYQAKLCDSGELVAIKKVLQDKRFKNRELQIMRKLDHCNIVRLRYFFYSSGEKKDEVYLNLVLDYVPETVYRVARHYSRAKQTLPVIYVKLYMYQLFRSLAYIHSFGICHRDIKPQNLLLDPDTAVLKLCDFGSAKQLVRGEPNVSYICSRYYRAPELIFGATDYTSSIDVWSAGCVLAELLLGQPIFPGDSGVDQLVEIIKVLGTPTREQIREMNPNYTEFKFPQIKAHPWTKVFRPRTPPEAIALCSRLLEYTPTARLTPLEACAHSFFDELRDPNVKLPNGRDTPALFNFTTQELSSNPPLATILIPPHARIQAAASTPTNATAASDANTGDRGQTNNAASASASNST

Row | Compound | IC50 (GSK3β (h)) | IC50 (CDK4/CyclinD1 (h)) | IC50 (PLK1 T210D (h)) | IC50 (PLK2 (h)) | IC50 (PLK3 (h)) | IC50 (HCT-116) | IC50 (H1299) | IC50 (U87-MG) | IC50 (A2780) | IC50 (MDA-MB-231)
1 | COc1cc2cc(c1)Nc1nccc(n1)-c1ccc(cc1)CN(C)CCNC(=O)[C@@H]1CCCN1C2 [Compound 158] | > 10 µM | > 10 µM | > 10 µM | > 3.02 µM | 7.08 µM | > 10 µM | > 10 µM | > 10 µM | > 10 µM | > 10 µM
2 | CN1CCNC(=O)[C@@H]2CCCN2Cc2cccc(c2)Nc2nccc(n2)-c2ccc(cc2)C1 [Compound 160] | 5.5 µM | > 10 µM | > 10 µM | > 3.02 µM | 9.33 µM | > 10 µM | > 10 µM | > 10 µM | > 10 µM | > 10 µM
3 | CN1CCN(C)c2ccc(cn2)-c2ccnc(n2)Nc2cc(c3c(c2)OCO3)CN2CCC[C@H]2C1=O [Compound 168] | 1.45 µM | 2.14 µM | > 10 µM | > 10 µM | > 10 µM | > 10 µM | > 10 µM | 6.76 µM | > 10 µM | > 10 µM
4 | C[C@@H]1NCc2cc(ccc2N2CCOCC2)Nc2nccc(n2)-c2cccc(c2)CNC1=O [Compound 182] | 0.661 µM | 6.03 µM | > 10 µM | > 10 µM | > 10 µM | > 10 µM | > 10 µM | > 10 µM | > 10 µM | > 10 µM
5 | C[C@@H]1NCc2cccc(c2)Nc2nccc(n2)-c2cccc(c2)CNC1=O [Compound 184] | 0.102 µM | 1.17 µM | > 10 µM | > 10 µM | > 10 µM | 5.37 µM | 9.77 µM | > 10 µM | 5.01 µM | > 10 µM

Further lines, results first:

Row | IC50 (GSK3β (h)) | IC50 (CDK4/CyclinD1 (h)) | IC50 (PLK1 T210D (h)) | IC50 (PLK2 (h)) | IC50 (PLK3 (h)) | IC50 (HCT-116) | IC50 (H1299) | IC50 (U87-MG) | IC50 (A2780) | IC50 (MDA-MB-231) | Compound
6 | 8.32 µM | > 10 µM | > 10 µM | > 3.02 µM | > 10 µM | > 10 µM | > 10 µM | > 10 µM | > 10 µM | > 10 µM | COc1cc2cc(c1)Nc1nccc(n1)-c1ccc(OC)c(c1)CN(C)CCNC(=O)[C@@H]1CCCN1C2 [Compound 162]
7 | > 10 µM | > 10 µM | > 10 µM | > 10 µM | > 10 µM | 4.17 µM | > 10 µM | 6.92 µM | 6.61 µM | > 10 µM | COc1ccc2cc1CN(C)CCNC(=O)[C@@H]1CCCN1Cc1cc(NCCc3ccccc3)cc(c1)Nc1nccc-2n1 [Compound 163]
8 | > 10 µM | > 10 µM | > 10 µM | > 10 µM | > 10 µM | 5.62 µM | > 10 µM | 6.17 µM | > 10 µM | > 10 µM | COc1ccc2cc1CN(C)CCNC(=O)[C@@H]1CCCN1Cc1cc(cc(NC(C)C)c1)Nc1nccc-2n1 [Compound 165]
9 | > 10 µM | > 10 µM | > 10 µM | > 10 µM | > 10 µM | 2.24 µM | > 10 µM | 3.72 µM | 2.75 µM | 6.46 µM | COc1ccc2cc1CN(C)CCCNC(=O)[C@@H]1CCCN1Cc1cc(NCCc3ccccc3)cc(c1)Nc1nccc-2n1 [Compound 167]
10 | > 10 µM | > 10 µM | > 10 µM | > 10 µM | > 10 µM | 6.61 µM | > 10 µM | 6.17 µM | > 10 µM | > 10 µM | COc1cc2cc(c1)Nc1nccc(n1)-c1ccc(OC)c(c1)CN(C)CCCNC(=O)[C@@H]1CCCN1C2 [Compound 171]
11 | > 10 µM | > 10 µM | > 10 µM | > 10 µM | > 10 µM | 4.9 µM | > 10 µM | 9.12 µM | > 10 µM | > 10 µM | COc1ccc2cc1CN(C)CCNC(=O)[C@@H]1CCCN1Cc1cc(C#N)cc(c1)Nc1nccc-2n1 [Compound 181]
